How the values were obtained:
Format in all cases: in vivo
IL-10 KO mice [1] = test: 1,25(OH)2D3 supplementation (0.005 μg/d, 4 weeks) of vitamin D deficient IL-10 KO mice, IBD symptoms
Excerpt: (§1) MICE. Age and sex matched C57BL/6 IL-10 KO, and wildtype (WT) mice were produced in the Pennsylvania State University breeding colony; the breeding pairs were obtained from Jackson Laboratory (Bar Harbor, Me.). The animal facilities at the Pennsylvania State University are specific pathogen free and therefore breeding IL-10 KO mice was successful. All of the procedures described were reviewed and approved by the Pennsylvania State University Institutional Animal Care and Use Committee on Jan. 25, 1999, IACUC# number: 98118-A0.
(§2) DIETS. From a single pool of breeding females fed commercial mouse diet (#5105 Ralston Purina Co.), females in the second week of gestation were selected and randomly distributed into two groups. Starting pregnant dams on vitamin D deficient diet ensured that by 5 weeks of age the weanlings were vitamin D deficient (Cantorna et al. 1996). All mice were fed synthetic diets made in the laboratory (Yang et al. 1993; modification of Smith et al. 1987). The mice were vitamin D deficient, vitamin D sufficient or 1,25-dihydroxycholecalciferol supplemented. Mice were housed under yellow light to prevent the synthesis of vitamin D in skin. All of the mice were vitamin D deficient until weaning.
(§3) The 3 week old vitamin D deficient mice were randomly assigned to various treatment groups as described below. […] Experimental diets were prepared fresh and replaced every 2-3 days during the experiment. To ensure that 1,25-dihydroxycholecalciferol (1,25(OH)2D3) treated mice ate all of the 1,25(OH)2D3 provided, food cups containing 8 g of diet were replaced every other day (completely eaten) for the duration of each experiment (Cantorna et al. 1996, Cantorna et al. 1998a). In order to monitor vitamin D toxicity, 1,25(OH)2D3 supplemented mice were observed daily for signs of hypercalcemia. Symptoms of hypercalcemia monitored daily included overall health and weight loss.
In the 2nd series of experiments 3 week old vitamin D deficient mice were split into 2 groups. One group of mice was maintained on the vitamin D deficient diet and the other group was supplemented with 0.005 μg/d 1,25(OH)2D3. The vitamin D deficient and 1,25(OH)2D3 supplemented mice were sacrificed 4 weeks later at […].
SERUM MEASUREMENTS. Mice were bled at 5 weeks of age and at the end of the experiments to measure hemoglobin, calcium, and red blood cell numbers. Serum was collected every 2 weeks and serum calcium measured (normal for mice is 2.00-2.75 mmol/L). Vitamin D deficiency was also monitored by serum calcium analysis (serum calcium less then 1.75 mmol/L). Calcium (587-A) and hemoglobin (525-A) colorometric kits were from Sigma Chemical Co. (St. Louis, Mo.). Red blood cells were counted using a hemocytometer.
(§4) IBD SEVERITY. Mortality associated with the development of diarrhea was recorded in IL-10 KO and WT mice. In addition the small intestines (SI) were removed and weighed. The jejunum of the […] KO mice is visibly inflamed and has been used by others to monitor symptoms of IBD in mice (Kuhns et al. 1993). The jejunum of the SI was saved in 100 g/L formalin in phosphate buffered saline solution and sent to the Penn State Diagnostic Laboratory for sectioning and staining with hematoxyalin and eosin. Four or more paraffin sections (4 microns) from each mouse were scored using the exact procedure described by Kuhns et. al (1993). The sections were scored blindly on a scale of 0 to 5 for inflammation. […]

WT mice = test: 1,25(OH)2D3 supplementation (0.005 μg/d, 4 weeks) of vitamin D deficient WT mice; details: 0.005 μg/day 1,25(OH)2D3 for 4 weeks, mean ± SEM
Excerpt: as §1
DIETS. […]
(§5) The 3 week old vitamin D deficient mice were randomly assigned to various treatment groups as described below. […] Symptoms of hypercalcemia monitored daily included overall health and weight loss. […]
SERUM MEASUREMENTS. […] Serum was collected every 2 weeks and serum calcium measured (normal for mice is 2.00-2.75 mmol/L). Vitamin D deficiency was also monitored by serum calcium analysis (serum calcium less then 1.75 mmol/L). […] Red blood cells were counted using a hemocytometer.
(§6) IBD SEVERITY. Mortality associated with the development of diarrhea was recorded in IL-10 KO and WT mice. […] Four or more paraffin sections (4 microns) from each mouse were scored using the exact procedure described by Kuhns et. al (1993). The sections were scored blindly on a scale of 0 to 5 for inflammation. […]

IL-10 KO mice [2] = test: Short term (2 weeks, 0.2 μg/d) 1,25(OH)2D3 treatment of IL-10 KO mice started at first IBD symptoms
Excerpt: as §1, §2, §3
In the 3rd experimental design 1,25(OH)2D3 treatment was started at the first signs of IBD symptoms (diarrhea, 7 weeks of age). Seven week old vitamin D deficient mice were split into 2 groups. One group was maintained vitamin D deficient and the other group was supplemented with 0.2 μg/d 1,25(OH)2D3. The mice were treated for 2 weeks and the 9 week old mice were sacrificed.
as §4, with “The jejunum of the SI was saved in 100 g/L formalin in phosphate buffered saline solution and sent to the Penn State Diagnostic Laboratory for sectioning and staining with hematoxyalin and eosin.” left out

IL-10 KO mice [3] = test: Mortality and growth of IL-10 KO mice fed cholecalciferol (vitamin D sufficient) from weaning
Excerpt: as §1
DIETS. From a single pool of breeding females fed commercial mouse diet (#5105 Ralston Purina Co.), females in the second week of gestation were selected and randomly distributed into two groups. Starting pregnant dams on vitamin D deficient diet ensured that by 5 weeks of age the weanlings were vitamin D deficient (Cantorna et al. 1996). […]
as §5, §6

IL-10 KO mice [4] = test: Food restriction experiment, IL-10 KO mice on cholecalciferol diet (+D restricted); details: mean ± SEM
Excerpt: as §1, §2
as §3, with “In order to monitor vitamin D toxicity, 1,25(OH)2D3 supplemented mice were observed daily for signs of hypercalcemia.” left out, “loss. […]” for “loss.”
as §6

[5] = 1,25(OH)2D3 supplemented IL-10 KO and WT mice, data not shown
[6] = 0.2 μg/d 1,25(OH)2D3 for 2 weeks from 7 weeks of age, mean ± SEM
[7] = treatment for as little as 2 weeks
[8] = 5.0 μg/d cholecalciferol for 4 weeks

Compound	Erythrocyte numbers (IL-10 KO mice [1]; [5])	Hemoglobin levels (IL-10 KO mice [1]; [5])	Weight (IL-10 KO mice [1]; IL-10 KO mice, 0.005 μg/day 1,25(OH)2D3 for 4 weeks, 9 weeks of age, mean ± SEM)	Serum Calcium (IL-10 KO mice [1]; IL-10 KO mice, 0.005 μg/day 1,25(OH)2D3 for 4 weeks, mean ± SEM)	Histology Score (IL-10 KO mice [1]; IL-10 KO mice, small intestine (jejunum) inflammation, scale 0 to 5, 0.005 μg/day for 4 weeks, mean ± SEM)	Serum Calcium (WT mice)	Small Intestine g (IL-10 KO mice [2]; [6])	Small Intestine g/100 g body (IL-10 KO mice [2]; [6])	IBD symptoms (IL-10 KO mice [2]; [7])	Inflammation in the small intestine (IL-10 KO mice [2]; [7])	Diarrhea and mortality (IL-10 KO mice [3]; 5.0 μg cholecalciferol/d from weaning (FIG. 1))	Growth (body weight curve) (IL-10 KO mice [3]; 5.0 μg cholecalciferol/d from weaning, compared to vitamin D deficient IL-10 KO mice (FIG. 2))	Weight (IL-10 KO mice [4]; 5.0 μg/d cholecalciferol for 4 weeks from 5 weeks of age)	Small Intestine g (IL-10 KO mice [4]; [8])	Small Intestine g/100 g body (IL-10 KO mice [4]; [8])
C=C1/C(=C\C=C2/CCC[C@]3(C)[C@@H]([C@H](C)CCCC(C)(C)O)CC[C@@H]23)C[C@@H](O)C[C@@H]1O [1,25(OH)2D3, 1,25-dihydroxycholecalciferol]	normal and not different	normal and not different	20.9 ± 0.8 g	3.00 ± 0.30 mmol/L	1.7 ± 0.4	2.72 ± 0.25 mmol/L	1.08 ± 0.05 g	5.4 ± 0.3 g/100 g body	ameliorated IBD symptoms	reduced the inflammation	–	–	–	–	–
C=C1CC[C@H](O)C/C1=C/C=C1\CCC[C@]2(C)[C@@H]([C@H](C)CCCC(C)C)CC[C@@H]12 [cholecalciferol]	–	–	–	–	–	–	–	–	–	–	did not develop diarrhea or die	grew rapidly	16.1 ± 1.1 g	1.00 ± 0.02 g	6.2 ± 0.3 g/100 g body

From patent publication US20030188756A1, “Treatment of inflammatory bowel disease with vitamin d compounds” (priority 2002, published 2003)
